Reference: publication PMC3174061 (Journal of the American Chemical Society, 2011)

Experiments:
LipO = LipO (Streptomyces sp. SANK 60405, UniProt D4QF28); experiment: UV/Vis spectroscopy, co-purification; assay type: binding; conditions: co-purified cofactor, Lys282 internal aldimine expected
LipN = LipN (Streptomyces sp. SANK 60405, UniProt D4QF27); experiment: HPLC, MS and NMR of product; assay type: biochemical; conditions: sugar donor, uridine as surrogate acceptor, 5 mM MgCl2, 30 °C
purified protein = substrate: NC[C@H]1O[C@@H](n2ccc(=O)[nH]c2=O)[C@H](O)[C@@H]1O; experiment: purified protein; assay type: biochemical, Escherichia coli; conditions: pH 7.5, […] phosphate, 30 °C

Cc1ncc(COP(=O)(O)O)c(C=O)c1O [PLP]
UV/Vis spectroscopy, co-purification (LipO): shown by UV/Vis spectroscopy to co-purify with the cofactor PLP

NC[C@H]1O[C@H](OP(=O)(O)OP(=O)(O)OC[C@H]2O[C@@H](n3ccc(=O)[nH]c3=O)[C@H](O)[C@@H]2O)[C@H](O)[C@@H]1O [UDP-5-amino-5-deoxy-α-D-ribose]
HPLC, MS and NMR of product; donor generated in situ by LipP and LipM (LipN): higher yields were obtained with the genuine sugar donor UDP-5-amino-5-deoxy-α-D-ribose

B1: EcUdp (Escherichia coli K-12) (protein)
chain: SKSDVFHLGLTKNDLQGATLAIVPGDPDRVEKIAALMDKPVKLASHREFTTWRAELDGKPVIVCSTGIGGPSTSIAVEELAQLGIRTFLRIGTTGAIQPHINVGDVLVTTASVRLDGASLHFAPLEFPAVADFECTTALVEAAKSIGATTHVGVTASSDTFYPGQERYDTYSGRVVRHFKGSMEEWQAMGVMNYEMESATLLTMCASQGLRAGMVAGVIVNRTQQEIPNAETMKQTESHAVKIVVEAARRLL
Km (purified protein): (2.0 ± 0.5) × 10^3 µM | kcat (purified protein): 5.33 ± 0.667 s⁻¹
